According to ChEMBL document CHEMBL3399934, “Cannabidiol (CBD) and its analogs: a review of their effects on inflammation” (Bioorg Med Chem, 2015):

Legend:
[1] = tested on: Mus musculus; test: Reduction of IL-1beta release in C57BL/6J mouse hippocampus inoculated with human amyloid beta (1 to 42) at 10 ug/kg, ip after 10 days by ELISA; format: functional; set-up: scale not given: the % may be the effect or the level left
[2] = tested on: Fibroblast; test: Reduction of lecithin content in Niemann-Pick patient fibroblast at 30 uM; format: functional, Homo sapiens; set-up: scale not given: the % may be the effect or the level left
[3] = Reduction of sphingomyelin content in human fibroblast at 30 uM; format: ADME, cell-based; set-up: scale not given: the % may be the effect or the level left
[4] = tested on: HEK293; test: Induction of rat TRPV3 expressed in HEK293 cells assessed as increase of Ca2+ level relative to ionomycin; format: cell-based
[5] = tested on: Mus musculus; test: Reduction of NO release in C57BL/6J mouse hippocampus inoculated with human amyloid beta (1 to 42) at 10 ug/kg, ip after 7 days; format: functional; set-up: scale not given: the % may be the effect or the level left
[6] = Reduction of lecithin content in human fibroblast at 30 uM; format: ADME, cell-based; set-up: scale not given: the % may be the effect or the level left
[7] = tested on: Mus musculus; test: Reduction of IL-1beta protein expression in C57BL/6J mouse hippocampus inoculated with human amyloid beta (1 to 42) at 10 ug/kg, ip after 10 days by immunofluorescence analysis; format: functional; set-up: scale not given: the % may be the effect or the level left
[8] = tested on: Mus musculus; test: Reduction of iNOS protein expression in C57BL/6J mouse hippocampus inoculated with human amyloid beta (1 to 42) at 10 ug/kg, ip after 10 days by immunofluorescence analysis; format: functional; set-up: scale not given: the % may be the effect or the level left
[9] = Induction of rat TRPV3 expressed in HEK293 cells assessed as increase of Ca2+ level; format: cell-based
[10] = tested on: Neutrophil; test: Inhibition of human neutrophil migration incubated for 30 mins prior to fMLP challenge by boyden chamber assay; format: functional, cell-based
[11] = Antiinflammatory activity in human glial cells assessed as reduction of LPS-induced S100B expression at 1 uM; format: functional; set-up: scale not given: the % may be the effect or the level left
[12] = tested on: Fibroblast; test: Reduction of sphingomyelin content in Niemann-Pick patient fibroblast at 30 uM; format: functional, Homo sapiens; set-up: scale not given: the % may be the effect or the level left
[13] = Antiinflammatory activity in human glial cells assessed as reduction of LPS-induced nitrate expression at 1 uM; format: functional; set-up: scale not given: the % may be the effect or the level left
[14] = tested on: Mus musculus; test: Antiinflammatory activity in Swiss OF1 mouse assessed as reduction of LPS-induced TNF-alpha expression at 10 mg/kg, ip by immunoblotting analysis; format: functional; set-up: scale not given: the % may be the effect or the level left; details: route intraperitoneal
[15] = Antiinflammatory activity in human glial cells assessed as reduction of LPS-induced iNOS expression at 1 uM; format: functional; set-up: scale not given: the % may be the effect or the level left
[16] = biological target: Cannabinoid receptor 1 (Rattus norvegicus, UniProt P20272); test: Binding affinity to rat CB1 receptor
Sequence of Cannabinoid receptor 1 (Rattus norvegicus, UniProt P20272) (P20272 whole entry): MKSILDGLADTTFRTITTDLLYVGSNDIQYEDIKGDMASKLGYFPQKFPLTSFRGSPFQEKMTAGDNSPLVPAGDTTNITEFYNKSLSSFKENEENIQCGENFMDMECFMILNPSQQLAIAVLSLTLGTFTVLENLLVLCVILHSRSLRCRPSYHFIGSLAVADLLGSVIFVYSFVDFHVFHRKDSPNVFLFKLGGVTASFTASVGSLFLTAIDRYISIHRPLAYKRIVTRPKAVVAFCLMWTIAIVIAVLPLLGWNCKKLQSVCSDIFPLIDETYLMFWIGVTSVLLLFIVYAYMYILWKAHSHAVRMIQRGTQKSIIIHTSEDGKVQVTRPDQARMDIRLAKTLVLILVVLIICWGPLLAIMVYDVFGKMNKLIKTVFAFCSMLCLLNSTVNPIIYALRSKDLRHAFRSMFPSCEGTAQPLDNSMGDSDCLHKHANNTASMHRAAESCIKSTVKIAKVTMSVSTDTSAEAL

[17] = biological target: Cannabinoid receptor 1 (Mus musculus, UniProt P47746); test: Partial agonist activity at mouse CB1 receptor by vas deferens assay
Sequence of Cannabinoid receptor 1 (Mus musculus, UniProt P47746) (P47746 whole entry): as the sequence (P20272 whole entry) above, with E95D counted along it

SMILES: C=C(C)[C@@H]1CCC(C)=C[C@H]1c1c(O)cc(CCCCC)cc1O [CANNABIDIOL]
- Activity [1]: 50%
- Activity [2]: 21%
- Activity [3]: 17%
- Activity [4]: 50%
- Activity [5]: 50%
- Activity [6]: 21%
- Activity [7]: 50%
- Activity [8]: 50%
- EC50 [9]: 3700 nM
- IC50 [10]: 0.45 nM
- Activity [11]: >50%
- Activity [12]: 77%
- Activity [13]: >50%
- Activity [14]: 50%
- Activity [15]: >50%

SMILES: C=C(C)[C@@H]1CCC(C)=C[C@H]1c1c(C)cc(O)cc1O
- IC50 [10]: 33 nM

SMILES: CCCCCCC(C)(C)c1cc(OC)c([C@H]2C=C(CO)[C@H]3C[C@@H]2C3(C)C)c(OC)c1
- Ki [16]: > 10000 nM

SMILES: C=C(C)[C@@H]1CCC(C)=C[C@H]1c1ccc(CCCCC)cc1O
- IC50 [17]: 30.9 nM
